What was measured:
[1] = biological target: T1, citrate synthase (CS) (Sus scrofa, UniProt P00889); experiment: Ellman's reagent at […] nm, inhibition of malyl-CoA thioesterase; assay type: biochemical; conditions: read-out: % inhibition at highest concentration (100 μM)
T1 construct: commercial native enzyme from porcine heart
T1 sequence (P00889 28-464): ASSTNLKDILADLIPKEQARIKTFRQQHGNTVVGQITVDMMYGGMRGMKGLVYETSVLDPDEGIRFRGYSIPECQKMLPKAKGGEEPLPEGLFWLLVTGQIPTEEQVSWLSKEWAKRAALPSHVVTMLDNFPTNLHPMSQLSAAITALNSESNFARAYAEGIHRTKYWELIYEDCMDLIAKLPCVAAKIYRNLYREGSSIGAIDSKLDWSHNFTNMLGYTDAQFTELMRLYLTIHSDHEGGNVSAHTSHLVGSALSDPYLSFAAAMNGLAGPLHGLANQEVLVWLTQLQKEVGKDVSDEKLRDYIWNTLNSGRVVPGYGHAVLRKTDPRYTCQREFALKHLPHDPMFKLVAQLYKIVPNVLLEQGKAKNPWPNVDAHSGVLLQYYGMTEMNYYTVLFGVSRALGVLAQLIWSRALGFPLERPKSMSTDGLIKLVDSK

[2] = biological target: T2, methylmalonyl-CoA mutase (MCM) (Homo sapiens, UniProt P22033); experiment: absorbance spectrum of loaded enzyme; assay type: binding; conditions: 12.5 μM MCM homodimer, 5 μM adenosylcobalamin, pH 7.5, 30 °C
T2 construct: gene MMUT
T2 sequence (P22033 34-750): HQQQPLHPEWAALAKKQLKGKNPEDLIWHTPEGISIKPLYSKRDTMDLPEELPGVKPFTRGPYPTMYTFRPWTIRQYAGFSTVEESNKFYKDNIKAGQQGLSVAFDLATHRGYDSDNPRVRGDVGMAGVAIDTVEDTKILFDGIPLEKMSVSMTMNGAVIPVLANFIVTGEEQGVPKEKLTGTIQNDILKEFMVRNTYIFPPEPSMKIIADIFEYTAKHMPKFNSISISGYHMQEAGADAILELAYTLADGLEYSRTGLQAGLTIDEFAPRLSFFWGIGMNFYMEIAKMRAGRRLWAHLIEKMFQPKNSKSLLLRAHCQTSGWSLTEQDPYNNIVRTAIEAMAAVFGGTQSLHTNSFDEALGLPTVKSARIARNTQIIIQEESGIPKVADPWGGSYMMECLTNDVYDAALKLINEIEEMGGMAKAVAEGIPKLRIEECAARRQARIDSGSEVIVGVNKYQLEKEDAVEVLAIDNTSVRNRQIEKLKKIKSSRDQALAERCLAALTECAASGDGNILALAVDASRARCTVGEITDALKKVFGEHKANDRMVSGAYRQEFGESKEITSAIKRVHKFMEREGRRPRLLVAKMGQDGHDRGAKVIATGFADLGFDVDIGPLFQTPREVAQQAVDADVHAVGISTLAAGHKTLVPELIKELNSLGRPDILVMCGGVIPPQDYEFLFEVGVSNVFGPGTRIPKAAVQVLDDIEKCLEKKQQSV

[3] = biological target: T2, methylmalonyl-CoA mutase (MCM); experiment: succinyl-CoA formation by LC-HRMS/MS; assay type: biochemical; conditions: 10 min preincubation, 0.24 μM adenosylcobalamin, 65 μM methylmalonyl-CoA, pH 7.5, 30 °C; coenzyme inactivation to cob(II)alamin; itaconyl-CoA 27% pure, concentrations corrected
[4] = biological target: T3, CLYBL (Homo sapiens, UniProt Q8N0X4, I241V); experiment: Ellman's reagent at […] nm (thioesterase); assay type: biochemical; conditions: pH 7.5, 37 °C, 2 mM MgCl2
T3 construct: full-length ORF (340 aa precursor), natural variant Ile241Val, C-terminal Myc-DKK (FLAG) tag, expressed in HEK293FT, anti-FLAG purified
T3 sequence (Q8N0X4 23-340 I241V): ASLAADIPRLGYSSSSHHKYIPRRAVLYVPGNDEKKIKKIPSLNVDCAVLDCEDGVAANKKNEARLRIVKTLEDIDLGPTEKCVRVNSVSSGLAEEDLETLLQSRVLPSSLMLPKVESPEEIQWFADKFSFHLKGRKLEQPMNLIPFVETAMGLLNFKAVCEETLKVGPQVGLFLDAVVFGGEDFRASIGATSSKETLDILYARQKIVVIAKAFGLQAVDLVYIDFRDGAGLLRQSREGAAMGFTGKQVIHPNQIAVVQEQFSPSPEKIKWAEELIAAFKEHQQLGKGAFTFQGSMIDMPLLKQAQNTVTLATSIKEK

[5] = biological target: T2, methylmalonyl-CoA mutase (MCM); experiment: succinyl-CoA formation by LC-HRMS/MS; assay type: biochemical; conditions: read-out: % residual activity at 50 μM
[6] = biological target: T4, SUCL (GDP-forming), SUCLG1:SUCLG2 complex (Homo sapiens, UniProt P53597+Q96I99); experiment: PK/LDH-coupled NADH consumption; assay type: biochemical; conditions: 0.6 mM GTP, 0.1 mM CoA, 7 mM MgCl2, pH 7.5, 30 °C
T4 construct: SUCLG1 aa 28-333 with N-terminal His6, SUCLG2 aa 38-420 with C-terminal His6, co-expressed in E. coli, tags kept
T4 sequence (P53597 28-333): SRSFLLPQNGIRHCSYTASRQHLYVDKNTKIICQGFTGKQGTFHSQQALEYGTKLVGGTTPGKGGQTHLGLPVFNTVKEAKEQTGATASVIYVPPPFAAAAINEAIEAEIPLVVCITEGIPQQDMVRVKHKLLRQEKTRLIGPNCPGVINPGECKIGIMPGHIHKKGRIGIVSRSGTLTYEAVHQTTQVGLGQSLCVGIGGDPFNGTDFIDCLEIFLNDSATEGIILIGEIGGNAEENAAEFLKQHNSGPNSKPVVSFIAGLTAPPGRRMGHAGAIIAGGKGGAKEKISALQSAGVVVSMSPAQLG
T4 sequence (Q96I99 38-420): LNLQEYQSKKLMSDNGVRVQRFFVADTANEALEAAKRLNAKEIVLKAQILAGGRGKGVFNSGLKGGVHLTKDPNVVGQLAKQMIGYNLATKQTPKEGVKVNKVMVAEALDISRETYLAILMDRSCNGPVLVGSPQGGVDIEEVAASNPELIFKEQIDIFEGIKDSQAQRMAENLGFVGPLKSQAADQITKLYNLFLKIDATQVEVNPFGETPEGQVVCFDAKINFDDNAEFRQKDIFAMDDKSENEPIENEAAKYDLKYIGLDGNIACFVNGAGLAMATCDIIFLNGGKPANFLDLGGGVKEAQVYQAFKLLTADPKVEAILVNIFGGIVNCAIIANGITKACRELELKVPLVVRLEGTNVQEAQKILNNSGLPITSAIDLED
From the text: PK/LDH-coupled NADH consumption on SUCL (GDP-forming), SUCLG1:SUCLG2 complex

[7] = biological target: T5, SUCL (ADP-forming), SUCLG1:SUCLA2 complex (Homo sapiens, UniProt P53597+Q9P2R7); experiment: PK/LDH-coupled NADH consumption; assay type: biochemical; conditions: 0.6 mM ATP, 0.1 mM CoA, 7 mM MgCl2, pH 7.5, 30 °C
T5 construct: SUCLG1 aa 28-333 with N-terminal His6, SUCLA2 aa 53-463 with C-terminal His6, co-expressed in E. coli, tags kept
T5 sequence (P53597 28-333): as the sequence (P53597 28-333) above
T5 sequence (Q9P2R7 53-463): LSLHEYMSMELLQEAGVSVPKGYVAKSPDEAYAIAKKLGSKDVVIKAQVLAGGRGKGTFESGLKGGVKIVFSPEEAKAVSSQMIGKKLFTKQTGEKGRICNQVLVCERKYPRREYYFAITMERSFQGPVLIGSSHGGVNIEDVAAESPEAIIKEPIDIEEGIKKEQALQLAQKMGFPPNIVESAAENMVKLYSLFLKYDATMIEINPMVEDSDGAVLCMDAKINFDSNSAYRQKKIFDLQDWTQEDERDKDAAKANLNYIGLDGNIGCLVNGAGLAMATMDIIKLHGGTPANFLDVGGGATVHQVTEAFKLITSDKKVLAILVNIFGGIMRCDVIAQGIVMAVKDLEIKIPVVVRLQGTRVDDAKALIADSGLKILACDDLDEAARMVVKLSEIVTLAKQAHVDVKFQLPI
From the text: PK/LDH-coupled NADH consumption on SUCL (ADP-forming), SUCLG1:SUCLA2 complex

## CC(=O)SCCNC(=O)CCNC(=O)[C@H](O)C(C)(C)COP(=O)(O)OP(=O)(O)OC[C@H]1O[C@@H](n2cnc3c(N)ncnc32)[C@H](O)[C@@H]1OP(=O)(O)O [ACoA, acetyl-CoA]
[1]
  inhibition at 100 µM: ~30%

## C/C1=C2/[N-][C@H]([C@H](CC(N)=O)[C@@]2(C)CCC(=O)NC[C@@H](C)OP(=O)([O-])O[C@H]2C(O)[C@@H](n3cnc4cc(C)c(C)cc43)O[C@@H]2CO)[C@]2(C)N=C(/C(C)=C3N=C(/C=C4N=C1[C@@H](CCC(N)=O)C\4(C)C)[C@@H](CCC(N)=O)[C@]\3(C)CC(N)=O)[C@@H](CCC(N)=O)[C@]2(C)CC(N)=O.[CH2-][C@H]1O[C@@H](n2cnc3c(N)ncnc32)[C@H](O)[C@@H]1O.[Co+3] (stereo partly shown) [AdoCbl, adenosylcobalamin]
[2]
  absorbance spectrum of loaded enzyme: conversion of the MCM-bound adenosylcobalamin into cob(II)alamin

## C=C(CC(=O)SCCNC(=O)CCNC(=O)[C@H](O)C(C)(C)COP(=O)(O)OP(=O)(O)OC[C@H]1O[C@@H](n2cnc3c(N)ncnc32)[C@H](O)[C@@H]1OP(=O)(O)O)C(=O)O [itaconyl-CoA]
[3]
  relative activity: Both acyl-CoAs induced a dose-dependent inhibition of MCM (Fig. 5a)

## CC(C)(COP(=O)(O)OP(=O)(O)OC[C@H]1O[C@@H](n2cnc3c(N)ncnc32)[C@H](O)[C@@H]1OP(=O)(O)O)[C@@H](O)C(=O)NCCC(=O)NCCSC(=O)C[C@H](O)C(=O)O [malyl-CoA]
[4]
  KM: CLYBL actively hydrolyzed malyl-CoA into malate and free CoASH
[5]
  remaining activity at 50 µM: < 10%

## O=C(O)CCC(=O)O [succinate]
[6]
  Km: 0.25 ± 0.03 mM
[7]
  Km: 6.3 ± 1.9 mM
